Results as given in patent publication US12528784B2, “Alkynyl-(heteroaryl)-carboxamide HCN1 inhibitors” (Hoffmann-La Roche Inc., priority 2019, dated 2026).

What was measured:
Assay type in all cases: cell-based
[1] = biological target: T1, HCN3 (Homo sapiens, UniProt Q9P1Z3); test: HCN3 automated patch clamp current inhibition assay (Ionworks Barracuda); settings: HEK-293 cells stably expressing HCN3; current inhibition during a hyperpolarizing pulse of -100 mV
T1 construct: expressed in transfected cells
T1 sequence (Q9P1Z3 1-774): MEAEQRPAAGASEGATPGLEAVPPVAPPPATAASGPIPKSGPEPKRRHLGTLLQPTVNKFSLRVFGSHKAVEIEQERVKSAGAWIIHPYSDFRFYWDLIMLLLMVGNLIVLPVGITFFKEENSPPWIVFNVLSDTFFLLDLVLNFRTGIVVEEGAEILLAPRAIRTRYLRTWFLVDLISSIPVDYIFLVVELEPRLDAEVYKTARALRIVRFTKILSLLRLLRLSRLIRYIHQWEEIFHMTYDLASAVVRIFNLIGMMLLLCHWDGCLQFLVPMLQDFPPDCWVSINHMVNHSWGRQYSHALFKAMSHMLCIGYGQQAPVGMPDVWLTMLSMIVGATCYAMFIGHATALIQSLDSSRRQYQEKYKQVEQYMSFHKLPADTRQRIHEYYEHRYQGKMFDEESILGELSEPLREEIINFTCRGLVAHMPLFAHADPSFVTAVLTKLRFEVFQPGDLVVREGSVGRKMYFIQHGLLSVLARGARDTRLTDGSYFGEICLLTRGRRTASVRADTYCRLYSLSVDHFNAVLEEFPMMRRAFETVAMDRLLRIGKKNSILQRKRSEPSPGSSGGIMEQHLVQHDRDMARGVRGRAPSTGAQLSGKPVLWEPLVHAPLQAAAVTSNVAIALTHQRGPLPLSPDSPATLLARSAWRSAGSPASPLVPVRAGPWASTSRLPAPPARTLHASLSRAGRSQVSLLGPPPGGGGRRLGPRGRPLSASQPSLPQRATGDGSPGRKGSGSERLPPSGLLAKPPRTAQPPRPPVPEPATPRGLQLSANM
Procedure: (§1) In vitro, high-throughput cellular electrophysiology was employed to detect voltage- and use-dependence of compounds in single concentration screening and IC50 determination for library and medicinal chemistry profiling compounds in 384 well plates.
(§2) Cell cultures were maintained in DMEM/F12 cell growth media containing FBS and appropriate antibiotics at 37° C., 5% CO2 for a maximum of 20 passages. At a time point of 40-72 hours prior to assay, the expression of HCN protein in the cells is induced by addition of tetracyclin. Cells may be incubated at 27° C. for 2-24 hours of induction. […] Cells were harvested at 80% confluency and resuspended in extracellular buffer and added to wells. A freshly prepared Escin solution was added to intracellular buffer and applied to establish whole cell recording via perforated patch clampling by APC.
(§3) Currents through activated channels were measured directly by APC by employing hyperpolarizing voltage steps. The activation window was increased and stabilized by the addition of cell permeable Br-cAMP. Baselines were established for both use- and voltage-dependence protocols using a −30 mV holding potential and multiple test pulses at −100 mV or by 20 mV steps from −120 to 0 mV, respectively. Test compounds were added after baseline recordings followed by a 10 min incubation, voltage-dependency protocol recording, and use-dependency recording. Data was corrected for baseline and rundown (well based) and normalized for % inhibition (plate based). Five previously reported HCN inhibitors of varying potencies and selectivities and zatebradine were used for run to run and plate to plate quality controls. […] Percent inhibition was analysed at −80, −100, −120 mV of the voltage-dependency protocol and at pulse 0 and 50 of the use-dependency protocols. Selectivity was assessed against HCN2, HCN3, and HCN4 overexpressing cell lines using similar methods. As HCN4 has a slower activation than the other HCN channels, activation was extended to achieve steady state activation.

[2] = biological target: T2, HCN1 (Homo sapiens, UniProt O60741); test: HCN1 automated patch clamp current inhibition assay (Ionworks Barracuda); settings: HEK-293 cells stably expressing HCN1; current inhibition during a hyperpolarizing pulse of -100 mV
T2 construct: expressed in transfected cells
T2 sequence (O60741 1-890): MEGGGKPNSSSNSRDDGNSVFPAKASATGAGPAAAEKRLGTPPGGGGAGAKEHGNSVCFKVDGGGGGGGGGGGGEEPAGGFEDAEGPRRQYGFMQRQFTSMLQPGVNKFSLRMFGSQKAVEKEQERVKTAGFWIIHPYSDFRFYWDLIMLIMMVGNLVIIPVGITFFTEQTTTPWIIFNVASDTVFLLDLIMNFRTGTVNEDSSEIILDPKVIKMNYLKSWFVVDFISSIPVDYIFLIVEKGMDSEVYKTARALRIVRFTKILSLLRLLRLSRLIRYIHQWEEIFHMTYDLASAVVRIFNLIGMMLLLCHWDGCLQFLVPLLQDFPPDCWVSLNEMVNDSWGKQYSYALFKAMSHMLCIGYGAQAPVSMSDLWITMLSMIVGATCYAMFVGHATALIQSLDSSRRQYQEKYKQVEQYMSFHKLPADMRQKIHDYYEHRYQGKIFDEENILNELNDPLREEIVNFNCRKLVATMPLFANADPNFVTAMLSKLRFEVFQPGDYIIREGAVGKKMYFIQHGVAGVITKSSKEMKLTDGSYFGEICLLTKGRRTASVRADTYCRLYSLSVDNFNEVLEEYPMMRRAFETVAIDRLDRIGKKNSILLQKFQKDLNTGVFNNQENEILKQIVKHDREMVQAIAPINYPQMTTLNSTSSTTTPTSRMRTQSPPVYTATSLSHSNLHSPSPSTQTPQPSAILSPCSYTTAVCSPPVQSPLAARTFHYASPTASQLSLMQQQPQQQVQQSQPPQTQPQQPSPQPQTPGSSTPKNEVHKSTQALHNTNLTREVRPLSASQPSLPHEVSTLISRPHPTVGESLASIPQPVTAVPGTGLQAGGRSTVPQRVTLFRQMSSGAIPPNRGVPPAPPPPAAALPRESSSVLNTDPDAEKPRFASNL
Procedure: as §1, §2, §3

[3] = biological target: T3, HCN4 (Homo sapiens, UniProt Q9Y3Q4); test: HCN4 automated patch clamp current inhibition assay (Ionworks Barracuda); settings: HEK-293 cells stably expressing HCN4; current inhibition during a hyperpolarizing pulse of -100 mV
T3 construct: expressed in transfected cells
T3 sequence (Q9Y3Q4 1-1203): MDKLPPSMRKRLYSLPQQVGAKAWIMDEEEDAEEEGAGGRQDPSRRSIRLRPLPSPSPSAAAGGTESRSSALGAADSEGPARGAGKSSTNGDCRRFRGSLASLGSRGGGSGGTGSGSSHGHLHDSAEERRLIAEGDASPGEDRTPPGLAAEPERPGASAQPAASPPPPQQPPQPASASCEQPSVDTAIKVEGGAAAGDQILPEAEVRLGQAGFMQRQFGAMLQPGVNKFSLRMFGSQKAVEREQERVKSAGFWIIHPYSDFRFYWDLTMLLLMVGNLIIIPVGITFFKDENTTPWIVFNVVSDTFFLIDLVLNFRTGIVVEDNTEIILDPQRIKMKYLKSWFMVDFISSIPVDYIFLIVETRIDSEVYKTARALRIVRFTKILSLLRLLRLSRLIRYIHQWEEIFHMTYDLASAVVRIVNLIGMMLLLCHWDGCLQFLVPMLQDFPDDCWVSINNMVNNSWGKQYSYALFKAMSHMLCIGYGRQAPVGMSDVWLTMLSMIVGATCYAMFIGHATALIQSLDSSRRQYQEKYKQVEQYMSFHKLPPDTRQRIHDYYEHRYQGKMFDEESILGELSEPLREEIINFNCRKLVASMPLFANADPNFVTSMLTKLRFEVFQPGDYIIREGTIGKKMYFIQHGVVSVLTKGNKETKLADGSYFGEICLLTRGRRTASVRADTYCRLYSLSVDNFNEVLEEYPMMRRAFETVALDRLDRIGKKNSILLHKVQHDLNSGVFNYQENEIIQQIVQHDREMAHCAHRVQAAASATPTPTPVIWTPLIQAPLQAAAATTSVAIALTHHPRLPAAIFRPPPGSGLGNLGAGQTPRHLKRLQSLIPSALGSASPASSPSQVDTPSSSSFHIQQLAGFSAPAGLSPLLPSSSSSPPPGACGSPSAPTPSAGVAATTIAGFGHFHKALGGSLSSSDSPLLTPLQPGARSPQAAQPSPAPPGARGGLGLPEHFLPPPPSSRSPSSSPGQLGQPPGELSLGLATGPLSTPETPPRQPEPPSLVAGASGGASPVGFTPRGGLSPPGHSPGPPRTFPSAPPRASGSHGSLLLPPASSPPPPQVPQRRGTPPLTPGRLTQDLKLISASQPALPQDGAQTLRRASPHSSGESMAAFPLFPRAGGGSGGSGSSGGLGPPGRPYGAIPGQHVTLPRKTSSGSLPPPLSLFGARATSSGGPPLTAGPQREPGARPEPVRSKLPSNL
Procedure: as §1, §2, §3

IC50 [1] [µM] | IC50 [2] [nM] | IC50 [3] [µM] | Compound
> 40 | 3120 |  | Cc1ccc(-n2c(C(N)=O)nc(C#Cc3ccccc3)c2C)cc1 [Example 37, 5-Methyl-4-(phenylethynyl)-1-(p-tolyl)-1H-imidazole-2-carboxamide]
> 40 | 17400 |  | Cc1c(C#Cc2ccnc(Cl)c2)nc(C(N)=O)n1-c1ccc(F)cc1F [Example 41, 4-(2-Chloro-pyridin-4-ylethynyl)-1-(2,4-difluoro-phenyl)-5-methyl-1H-imidazole-2-carboxylic Acid Amide]
> 40 | 2520 |  | Cc1ccc(-n2cc(C#Cc3ccnc(Cl)c3)nc2C(N)=O)cn1 [Example 43, 4-((2-Chloropyridin-4-yl)ethynyl)-1-(6-methylpyridin-3-yl)-1H-imidazole-2-carboxamide]
> 40 | 229 | > 40 | Cc1ccc(-c2c(C(N)=O)nc(C#Cc3cccc(Cl)c3C)n2C)cn1 [Example 44, 2-[2-(3-Chloro-2-methyl-phenyl)ethynyl]-1-methyl-5-(6-methyl-3-pyridyl)imidazole-4-carboxamide]

The remaining lines, values behind:

Compound | IC50 [1] [µM] | IC50 [2] [nM] | IC50 [3] [µM]
Cc1ccc(-n2c(C(N)=O)nc(C#Cc3cccc4c3OCO4)c2C)cn1 [Example 13, 4-(Benzo[d][1,3]dioxol-4-ylethynyl)-5-methyl-1-(6-methylpyridin-3-yl)-1H-imidazole-2-carboxamide] | > 40 | 903 | 
Cc1ccc(-n2c(C(N)=O)nc(C#Cc3cccc(Cl)n3)c2C)cn1 [Example 14, 4-((6-Chloropyridin-2-yl)ethynyl)-5-methyl-1-(6-methylpyridin-3-yl)-1H-imidazole-2-carboxamide] | > 40 | 1940 | 
Cc1ccc(-n2c(C(N)=O)nc(C#Cc3cc(Cl)ccn3)c2C)cn1 [Example 18, 4-((4-Chloropyridin-2-yl)ethynyl)-5-methyl-1-(6-methylpyridin-3-yl)-1H-imidazole-2-carboxamide] | > 40 | 4100 | 
Cc1ccc(-n2c(C(N)=O)nc(C#Cc3ccncc3)c2C)cn1 [Example 21, 5-Methyl-1-(6-methyl-3-pyridyl)-4-[2-(4-pyridyl)ethynyl]imidazole-2-carboxamide] | > 40 | 11200 | 
Cc1cncc(-n2c(C(N)=O)nc(C#Cc3ccnc(Cl)c3C)c2C)c1 [Example 25, 4-[2-(2-Chloro-3-methyl-4-pyridyl)ethynyl]-5-methyl-1-(5-methyl-3-pyridyl)imidazole-2-carboxamide] | 20.5 | 125 | > 40
Cc1ccc(-c2c(C(N)=O)nc(C#Cc3ccnc(Cl)c3C)n2C)cn1 [Example 33] | > 40 | 947 | > 40
Cc1ccc(-c2c(C(N)=O)nc(C#Cc3cccc(Cl)c3)n2C)cn1 [Example 34, 2-[2-(3-Chlorophenyl)ethynyl]-1-methyl-5-(6-methyl-3-pyridyl)imidazole-4-carboxamide] | 4.9 | 99 | > 40
